Source: patent US9969699B2, “Cancer cell growth inhibitor, anticancer agent, and method for screening same, as well as novel compound” (Microbial Chemistry Research Foundation, priority 2014, dated 2018)

How the values were obtained:
NIH3T3/EGFRWT cells = experiment: 3D cell culture step, NIH3T3/EGFRWT cells in EGF-including medium; type: cell-based, mouse; settings: Test Example 3, NIH3T3/EGFRWT cells, EGF-including medium
Description: (§1) After the 3 days of culture, the number of viable cells was counted by […]-GLO (trademark) Luminescent Cell Viability Assay (available from Promega), which was a method for quantitating ATP in viable cells. A cell proliferation inhibition rate in the 3D cell culture step was calculated according to (Expression 3) below. Cell proliferation inhibition rate(%)=(1−X/Y)×100 (Expression 3)
(§2) In the (Expression 3), X denotes the number of viable cells when the test substance was added, and Y denotes the number of viable cells when the test substance was not added.

KS-1 cells = experiment: 3D cell culture step, EGFR vIII gene non-expressing brain tumor cells KS-1; type: cell-based; settings: Test Example 3, KS-1 cells
Description: (§3) The following 3 brain tumor cells were used as the EGFR vIII gene non-expressing cells. • U251 cells (available from ATCC) • U87MG cells (available from ATCC) • KS-1 cells (available from ATCC) <3D Cell Culture Step>
as §1, §2

NIH3T3/EGFR vIII cells = experiment: 3D cell culture step (environment without adhesion scaffold), proliferation of NIH3T3/EGFR vIII cells; type: cell-based, mouse
U87MG cells = experiment: 3D cell culture step, EGFR vIII gene non-expressing brain tumor cells U87MG; type: cell-based; settings: Test Example 3, U87MG cells
Description: as §3, §1, §2

U251 cells = experiment: 3D cell culture step, EGFR vIII gene non-expressing brain tumor cells U251; type: cell-based; settings: Test Example 3, U251 cells
Description: as §3, §1, §2

NIH3T3 cells = experiment: 2D cell culture step (environment with adhesion scaffold), proliferation of NIH3T3 cells; type: cell-based; settings: Mus musculus, 72 h; NIH3T3 cells, TC-treated plate, 3 days, […]-GLO; read-out: IC50 2D cell culture step
Description: Note that, as a negative control, the NIH3T3 cells at 2×10^3 cells/100 were seeded to the same plate in a volume of 100 μL per well and cultured at 37° C. in the presence of 5% CO2 for 3 days without the addition of the test substance.
Note that, Dulbecco's Modified Eagle Medium supplemented with 5% FBS was used for the culture.
A cell proliferation inhibition rate in the 2D cell culture step was calculated according to (Expression 2) below. Cell proliferation inhibition rate(%)=(1−D/E)×100 (Expression 2)
In the (Expression 2), D denotes the number of viable NIH3T3 cells when the test substance was added, and E denotes the number of viable NIH3T3 cells when the test substance was not added.

COc1cc2ncnc(Nc3cccc(Cl)c3)c2cc1OC [AG1478, reference compound]
inhibiting activity against scaffold-independent proliferation capacity (NIH3T3/EGFRWT cells): exhibited an inhibiting activity | inhibiting activity against scaffold-independent proliferation capacity (KS-1 cells): did not exhibit an inhibiting activity | IC50 (NIH3T3/EGFR vIII cells; Mus musculus, 72 h, NIH3T3/EGFR vIII cells, Ultra Low Attachment plate, 3 days, […]-GLO): 1 µM | inhibiting activity against scaffold-independent proliferation capacity (NIH3T3/EGFR vIII cells; Test Example 3, NIH3T3/EGFR vIII cells): exhibited an inhibiting activity | inhibition of proliferation of NIH3T3 cells expressing EGFR mutant vIII in the 3D cell culture step (NIH3T3/EGFR vIII cells; result in words from Table 1): inhibited proliferation | inhibiting activity against scaffold-independent proliferation capacity (U87MG cells): did not exhibit an inhibiting activity | inhibiting activity against scaffold-independent proliferation capacity (U251 cells): did not exhibit an inhibiting activity | IC50 (NIH3T3 cells): 50 µM
